In patent US6586402B1, “LH-RH peptide analogues, their uses and pharmaceutical compositions containing them” (Laboratoire Theramex, priority 1997, dated 2003):
Where two headings read alike, the source gives them in different places. Square brackets hold non-standard residues; d marks the D form. Peptide text beside a SMILES is read from it. * marks the point of attachment. dPhe(4-Cl) = N[C@H](Cc1ccc(Cl)cc1)C(=O)O; d2Nal = N[C@H](Cc1ccc2ccccc2c1)C(=O)O; d(hCit) = NC(=O)NCCCC[C@@H](N)C(=O)O; Lys(iPr) = CC(C)NCCCC[C@H](N)C(=O)O; dCit = NC(=O)NCCC[C@@H](N)C(=O)O; tBuAla = CC(C)(C)C[C@H](N)C(=O)O; d3Pal = N[C@H](Cc1cccnc1)C(=O)O; Nicotinoyl = O=C(c1cccnc1)*

Tests used:
[1] = target: LH-RH receptors (membrane fractions of pituitaries from female Sprague Dawley rats) (rat (female Sprague Dawley)) (UniProt P30969); test: competition with [125I]-buserelin, rat pituitary membranes
[2] = target: LH-RH receptors (membrane fractions of pituitaries from female Sprague Dawley rats) (rat (female Sprague Dawley)) (UniProt P30969); test: competition with [125I]-buserelin, rat pituitary membranes; Ki by Cheng-Prusoff
LH-RH receptors [3] = target: T1, LH-RH receptors (Rattus norvegicus, UniProt P30969)
T1 sequence (P30969 1-327): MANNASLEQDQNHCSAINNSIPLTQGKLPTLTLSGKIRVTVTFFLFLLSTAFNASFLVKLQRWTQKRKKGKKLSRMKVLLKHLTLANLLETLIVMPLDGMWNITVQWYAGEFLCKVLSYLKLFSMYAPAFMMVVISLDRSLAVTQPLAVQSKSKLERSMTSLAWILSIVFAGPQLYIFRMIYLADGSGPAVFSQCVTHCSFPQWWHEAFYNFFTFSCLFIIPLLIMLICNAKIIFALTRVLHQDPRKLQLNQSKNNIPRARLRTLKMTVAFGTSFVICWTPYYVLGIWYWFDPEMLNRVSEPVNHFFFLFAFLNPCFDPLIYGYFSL

LH-RH receptors [4] = target: T1, LH-RH receptors; test: biochemical

Compound | pKi [1] | pKi [2] | % of inhibition of ovulation (LH-RH receptors [3]; 0.25 μg/rat s.c.) [%] | % of inhibition of ovulation (LH-RH receptors [3]; 0.5 μg/rat s.c.) [%] | % of inhibition of ovulation (LH-RH receptors [3]; 1 μg/rat s.c.) [%] | Ki (LH-RH receptors [4]) [nM] | other results
Buserelin (peptide) | > 9 -log Ki | 9.35 -log Ki | – | – | – | – | –
CC(=O)N[C@H](Cc1ccc2ccccc2c1)C(=O)N[C@H](Cc1ccc(Cl)cc1)C(=O)N[C@H](Cc1cccnc1)C(=O)N[C@@H](CO)C(=O)N[C@@H](CCCCNC(=O)c1cccnc1)C(=O)N[C@H](CCCCNC(=O)c1cccnc1)C(=O)N[C@@H](CC(C)(C)C)C(=O)N[C@@H](CCCCNC(C)C)C(=O)N1CCC[C@H]1C(=O)N[C@H](C)C(N)=O [Example 15, AcD-Nal-D-pClPhe-D-Pal-Ser-NicLys-D-NicLys-Npg-IprLys-Pro-D-Ala-NH2] (Ac-[d2Nal][dPhe(4-Cl)][d3Pal]SK(Nicotinoyl)[dK](Nicotinoyl)[tBuAla][Lys(iPr)]P[dA]-NH2) | – | – | 60 | 100 | 80 | 0.589 | % of inhibition of ovulation (LH-RH receptors [3]; 0.1 μg/rat s.c.): 0%
CC(=O)N[C@H](Cc1ccc2ccccc2c1)C(=O)N[C@H](Cc1ccc(Cl)cc1)C(=O)N[C@H](Cc1cccnc1)C(=O)N[C@@H](CO)C(=O)N[C@@H](Cc1ccc(O)cc1)C(=O)N[C@H](CCCCNC(N)=O)C(=O)N[C@@H](CC(C)(C)C)C(=O)N[C@@H](CCCCNC(C)C)C(=O)N1CCC[C@H]1C(=O)N[C@H](C)C(N)=O [Example 18, AcD-Nal-D-pClPhe-D-Pal-Ser-Tyr-D-HCit-Npg-IprLys-Pro-D-Ala-NH2] (Ac-[d2Nal][dPhe(4-Cl)][d3Pal]SY[d(hCit)][tBuAla][Lys(iPr)]P[dA]-NH2) | – | – | 20 | – | 80 | 0.0851 | –

Further lines, with some results ahead:

pKi [1] | pKi [2] | % of inhibition of ovulation (LH-RH receptors [3]; 0.25 μg/rat s.c.) [%] | % of inhibition of ovulation (LH-RH receptors [3]; 0.5 μg/rat s.c.) [%] | % of inhibition of ovulation (LH-RH receptors [3]; 1 μg/rat s.c.) [%] | Ki (LH-RH receptors [4]) [nM] | Compound | other results
> 9 -log Ki | 9.9 -log Ki | – | – | – | – | Deslorelin (peptide) | –
> 9 -log Ki | 9.16 -log Ki | – | – | – | – | Antide (peptide) | –
> 9 -log Ki | 9.98 -log Ki | – | – | – | – | Histrelin (peptide) | –
– | – | 80 | 43 | 100 | 0.191 | CC(=O)N[C@H](Cc1ccc2ccccc2c1)C(=O)N[C@H](Cc1ccc(Cl)cc1)C(=O)N[C@H](Cc1cccnc1)C(=O)N[C@@H](CO)C(=O)N[C@@H](Cc1ccc(O)cc1)C(=O)N[C@H](CCCNC(N)=O)C(=O)N[C@@H](CC(C)(C)C)C(=O)N[C@@H](CCCCNC(C)C)C(=O)N1CCC[C@H]1C(=O)N[C@H](C)C(N)=O [Example 17, AcD-Nal-D-pClPhe-D-Pal-Ser-Tyr-D-Cit-Npg-IprLys-Pro-D-Ala-NH2] (Ac-[d2Nal][dPhe(4-Cl)][d3Pal]SY[dCit][tBuAla][Lys(iPr)]P[dA]-NH2) | Number of ovulating females/total number of treated females (LH-RH receptors [3]; 0.25 μg/rat s.c.): 1/5; Number of ovulating females/total number of treated females (LH-RH receptors [3]; 0.5 μg/rat s.c.): 4/7; % of inhibition of ovulation (LH-RH receptors [3]; 0.75 μg/rat s.c.): 100%; Number of ovulating females/total number of treated females (LH-RH receptors [3]; 0.75 μg/rat s.c.): 0/7; Number of ovulating females/total number of treated females (LH-RH receptors [3]; 1 μg/rat s.c.): 0/12; antiovulatory activity in words (LH-RH receptors [3]; 1 μg/rat s.c.): maximal or sub-maximal activity; dose relation of the inhibition of ovulation, in words (LH-RH receptors [3]; dose range studied, s.c.): especially active, but its effects were not related to the dose
– | – | – | 20 | 69 | 0.692 | CC(=O)N[C@H](Cc1ccc2ccccc2c1)C(=O)N[C@H](Cc1ccc(Cl)cc1)C(=O)N[C@H](Cc1cccnc1)C(=O)N[C@@H](CO)C(=O)N[C@@H](CCCCNC(=O)c1cccnc1)C(=O)N[C@H](CCCCNC(=O)c1cccnc1)C(=O)N[C@@H](CC(C)C)C(=O)N[C@@H](CCCCNC(C)C)C(=O)N1CCC[C@H]1C(=O)N[C@H](C)C(N)=O [Antide, reference compound] (Ac-[d2Nal][dPhe(4-Cl)][d3Pal]SK(Nicotinoyl)[dK](Nicotinoyl)L[Lys(iPr)]P[dA]-NH2) | % of inhibition of ovulation (LH-RH receptors [3]; 2.5 μg/rat s.c.): 67%; % of inhibition of ovulation (LH-RH receptors [3]; 5 μg/rat s.c.): 100%; % of inhibition of ovulation (LH-RH receptors [3]; 10 μg/rat s.c.): 100%
